Results on eight compounds are retold here after paper PMC4303912, “A primary fish gill cell culture model to assess pharmaceutical uptake and efflux: Evidence for passive and facilitated transport” (Aquatic Toxicology (Amsterdam, Netherlands), 2015).

Where two headings read alike, the source gives them in different places. Marks after values point to notes of the source that are not given here.

The test system of data set [1] is DSI gill cell epithelium. Kind of data set: Concentration equilibrium transport assays (CETA). The note with it: for CETA, percentage of initial concentration apical versus basal: 1 μg L^−1 both sides, over 48 h.
For data set [2] the following is noted: cited from earlier work.
The next data set in a line: in vitro. Particulars: rainbow trout (Oncorhynchus mykiss).
Data set [3] concerns DSI gill cell epithelium. Particulars: for Uptake TR (Papp A:B/Papp B:A): rainbow trout (Oncorhynchus mykiss).
In data set [4] the test system is propranolol uptake across DSI gill cell epithelium. As to the kind of experiment: Inhibition of the uptake of propranolol by transporter inhibitors. Particulars: 400 nM inhibitor, 48 h.
A short description of data set [5]: Membrane (paracellular) permeability with 14C-mannitol. The data set is classed as in vitro ADME, rainbow trout (Oncorhynchus mykiss). Particulars: for Papp A→B at 24 h, 0.43 nM: rainbow trout (Oncorhynchus mykiss).
In data set [6] the test system is DSI gill cell epithelium. Kind of data set: Bidirectional transport assays (BTA), apparent permeability coefficients and transport ratios. Particulars: for difference between Papp A:B and Papp B:A: 6 h; for time-dependent BTA, uptake versus efflux (% of donor concentration): over 48 h.
Assay in data set [7]: as above
Particulars: rainbow trout (Oncorhynchus mykiss).

On the set-up of data set [8]: method as in AstraZeneca, 2014. Particulars: experimentally measured values, ref AstraZeneca, 2014, cited from earlier work.
In data set [9] the test system is DSI gill cell epithelium. As to the kind of experiment: pH-dependent transport of propranolol. Particulars: pH from 8 to 9.5; asymmetrical; 6 h. The data set is classed as in vitro ADME, rainbow trout (Oncorhynchus mykiss).
Data set [10] in a line: pH-dependent transport of propranolol. Type of data set: in vitro ADME, rainbow trout (Oncorhynchus mykiss). Particulars: rainbow trout (Oncorhynchus mykiss); for Papp B→A at 6 h, 1 μg L^−1: 1 μg L^−1, read-out: Papp B:A (efflux permeability).
On the set-up of data set [11]: method as in Owen et al., 2009. Particulars: ref Owen et al., 2009, cited from earlier work; for In vivo plasma concentration: 40 days exposure.
Data set [12] relates to DSI gill cell epithelium. As to the kind of experiment: Concentration-dependent uptake of propranolol, in vitro basal concentrations. Type of data set: in vitro ADME, rainbow trout (Oncorhynchus mykiss). The note with it: for In vitro concentration (basal compartment): 6 h apical exposure, asymmetrical. How it is done:
Radioactivity was analyzed as previously described in Section 2.3.
This was calculated using the mammalian fish leverage model, whereby the predicted plasma concentration can be described by multiplying the environmental concentration by the blood to water partitioning coefficient ([Huggett et al., 2004]) using the Fitzsimmons model for the partitioning of compounds between blood and water ([Fitzsimmons et al., 2001]).

Where [13] appears, read: nominal water concentration 10 μg L^−1.
Where [14] appears, read: nominal water concentration 100 μg L^−1.
[15] abbreviates: nominal water concentration 1000 μg L^−1.
Setting [16] is: nominal water concentration 10,000 μg L^−1.

For orientation: efflux ratio means a quotient of directional permeabilities that is used to spot active efflux. As for `COc1ccc(CC(C)NCC(O)c2ccc(O)c(NC=O)c2)cc1` (centres unmarked) [Formoterol, formoterol], the “CETA, percentage of initial concentration apical versus basal” value (“CETA, percentage” for short) in the data set on DSI gill cell epithelium [1] (asymmetrical conditions) is “no signs of facilitated transport”; in the data set on DSI gill cell epithelium [1] (symmetrical conditions), “more in the apical than basal”. For the same compound, the “pKa (acidic)” value in data set [2] (acidic) is given as 7.9. In data set [2] (basic), the “pKa (basic)” value is recorded as 9.2. The efflux ratio was 0.93 in “in vitro” and 1.03 in the data set “in vitro” (pH 7.7). In the data set on DSI gill cell epithelium [3], the “difference between Papp A:B and Papp B:A” value was “no significant differences”. The “time-dependent BTA, uptake versus efflux (% of donor concentration)” value in the data set on DSI gill cell epithelium [3] was “slightly greater uptake than efflux”. Also, the figures for the “Uptake TR (Papp A:B/Papp B:A)” value in the data set with DSI gill cell epithelium [3] and with DSI gill cell epithelium [3] (pH 7.7) were 1.08 and 0.97, respectively.
The pKa is the pH at which an ionisable group is half protonated. Take `CN(C)CCCN1c2ccccc2CCc2ccccc21` [Imipramine, imipramine]: the “facilitated transport as share of the total transport” value with DSI gill cell epithelium [1] (CETA) was “approximately 10%”. Also, the results for the “CETA, percentage” value in the data set on DSI gill cell epithelium [1] (asymmetrical conditions) and in the data set on DSI gill cell epithelium [1] (symmetrical conditions) were “increased apical to basal transport” and “increased basal to apical facilitated transport”, respectively. Also, the pKa entry in data set [2] was “around 9.5”.
As to `CN(C)C(=O)CCSC(SCCC(=O)O)c1cccc(/C=C/c2ccc3ccc(Cl)cc3n2)c1` (centres unmarked) [MK571], the “decrease in propranolol permeability compared to the control” value in data set [4] (apical application) and in data set [4] (basal application) was “approximately 40%” throughout.
On to `OC[C@@H](O)[C@@H](O)[C@H](O)[C@H](O)CO` [Mannitol, mannitol], for which, in data set [5] (pH 7.7, cell free inserts, TER 0 Ω cm^2 (blanked), apical freshwater, read-out: Mannitol flux (permeability)), the Papp at 24 h, 0.43 nM turned out to be 3.6 ± 0.2 ×10⁻⁶ cm/s. In addition, the Papp A→B at 24 h, 0.43 nM was 1.1 ± 1.1 ×10⁻⁶ cm/s in data set [5] (pH 7.7, DSI epithelia with TER 200–1000 Ω cm^2, apical freshwater, read-out: mannitol permeability) and 0.1 ± 0.01 ×10⁻⁶ cm/s in data set [5] (pH 7.7, DSI epithelia with TER >2 kΩ cm^2, apical freshwater, read-out: mannitol permeability (Papp A:B)).
In the case of `COCCc1ccc(OCC(O)CNC(C)C)cc1` (centres unmarked) [Metoprolol, metoprolol], in the data set with DSI gill cell epithelium [6] (asymmetrical conditions), the “difference between Papp A:B and Papp B:A” value is “no significant differences”; the “time-dependent BTA, uptake versus efflux (% of donor concentration)” value is reported as “slightly greater uptake than efflux”. Moreover, the “CETA, percentage” value with DSI gill cell epithelium [1] (asymmetrical conditions) is “no signs of facilitated transport”. Besides, in the data set on DSI gill cell epithelium [1] (symmetrical conditions), the “CETA, percentage” value is “no significant differences”.
For orientation: Papp B→A means the apparent permeability from the basolateral to the apical side of a cell layer. With `CC(C)NCC(O)COc1cccc2ccccc12` (centres unmarked) [Propranolol, propranolol], in the data set on DSI gill cell epithelium [6] (asymmetrical conditions), the “difference between Papp A:B and Papp B:A” value is “significantly higher”. The “time-dependent BTA, uptake versus efflux (% of donor concentration)” value in the data set with DSI gill cell epithelium [6] (asymmetrical conditions) was “taken up across the gill cell surface than effluxed”. In addition, the Papp A→B at 6 h, 1 μg L^−1 in data set [7] came to 1.7 ± 0.2 ×10⁻⁶ cm/s; in data set [10] (apical freshwater pH 6, asymmetrical, 1 μg L^−1, read-out: Papp A:B (uptake permeability)) it was 0.4 ± 0.03 ×10⁻⁶ cm/s. Moreover, the Papp B→A at 6 h, 1 μg L^−1 in [7] was determined as 1.1 ± 0.02 ×10⁻⁶ cm/s; in [7] (pH 7.7), 0.8 ± 0.1 ×10⁻⁶ cm/s; in data set [10] (apical freshwater pH 6, asymmetrical), 2.8 ± 0.1 ×10⁻⁶ cm/s; in [10] (apical freshwater pH 8, asymmetrical), 0.8 ± 0.1 ×10⁻⁶ cm/s. For the same compound, in the data set on DSI gill cell epithelium [1] (CETA), the “facilitated transport as share of the total transport” value is recorded as “approximately 10%”. For the same compound, the results for the “CETA, percentage” value in the data set with DSI gill cell epithelium [1] (asymmetrical conditions) and with DSI gill cell epithelium [1] (symmetrical conditions) were “increased apical to basal transport” and “significantly more than the basal”, respectively. Further, the “log Kow” value in [8] (pH 7.4) is recorded as 1.12 ^*. Moreover, the “effect of pH increase on Papp” value with DSI gill cell epithelium [9] is recorded as “without significant effect”. The “In vivo plasma concentration” value was 0.94 ^* (n/a) ng mL^−1 in data set [11] (nominal water concentration 1.0 μg L^−1, pooled plasma sample); 3.3 (±0.4) ng mL^−1 in data set [11] (setting [13]); 16 (±7) ng mL^−1 in [11] (setting [14]); 280 (±116) ng mL^−1 in data set [11] (setting [15]); 5200 (±1333) ng mL^−1 in data set [11] (setting [16]). For the same compound, in data set [11], the “actual plasma concentrations as share of predicted” value is recorded as 59%. The “in vitro basolateral concentration as average share of actual plasma concentration” value with DSI gill cell epithelium [12] is on record as 16%. For the same compound, in the data set with DSI gill cell epithelium [12], the “in vitro basolateral concentration as average share of predicted plasma concentration” value is 6%. Moreover, the “slope of [rate] versus [concentration] (flux)” value in the data set on DSI gill cell epithelium [12] (0.014–10,000 μg L^−1, 6 h, linear regression, n = 54, r^2 = 0.974) came out at 0.052. Also, in the data set on DSI gill cell epithelium [12] (n = 21, r^2 = 0.966), the “slope of [in vitro] versus [actual] plasma concentration” value was found to be 0.155. For the same compound, the “slope of [in vitro] versus [predicted] plasma concentration” value in the data set with DSI gill cell epithelium [12] (n = 21, r^2 = 0.995) is given as 0.063. For the same compound, the “In vitro concentration (basal compartment)” value with DSI gill cell epithelium [12] (nominal water concentration 0.1 μg L^−1) is on record as 0.04 (±0.002) ng mL^−1; in the data set with DSI gill cell epithelium [12] (nominal water concentration 1.0 μg L^−1) it was 0.10 (±0.001) ng mL^−1; with DSI gill cell epithelium [12] (setting [13]), 0.72 (±0.02) ng mL^−1; with DSI gill cell epithelium [12] (setting [14]), 7.5 (±0.3) ng mL^−1; in the data set on DSI gill cell epithelium [12] (setting [15]) it was 79.5 (±7.3) ng mL^−1; in the data set with DSI gill cell epithelium [12] (setting [16]), 812 (±158) ng mL^−1. In the data set with DSI gill cell epithelium [12] (nominal water concentration 100,000 μg L^−1), the “In vitro concentration (basal compartment)” value was 5545 (±313) ng mL^−1.
Turning to `CNC(=C[N+](=O)[O-])NCCSCc1ccc(CN(C)C)o1` [Ranitidine, ranitidine], the “difference between Papp A:B and Papp B:A” value with DSI gill cell epithelium [6] (asymmetrical conditions) is “no significant differences”. Moreover, the “time-dependent BTA, uptake versus efflux (% of donor concentration)” value is given as “taken up across the gill cell surface than effluxed” in the data set with DSI gill cell epithelium [6] (asymmetrical conditions) and “greater efflux transport” in the data set with DSI gill cell epithelium [6] (symmetrical conditions). The efflux ratio at 6 h, 1 μg L^−1 in [7] is 0.83. The “facilitated transport as share of the total transport, efflux” value in the data set on DSI gill cell epithelium [1] (CETA, efflux) is reported as “around 5%”. The “CETA, percentage” value in the data set with DSI gill cell epithelium [1] (symmetrical conditions) is “no significant differences”. Moreover, the pKa in [2] is given as 8.08.
On to `CC(C)(C)NCC(O)c1cc(O)cc(O)c1` (centres unmarked) [Terbutaline, terbutaline], for which the “difference between Papp A:B and Papp B:A” value with DSI gill cell epithelium [6] (asymmetrical conditions) is on record as “no significant differences”. Moreover, the “time-dependent BTA, uptake versus efflux (% of donor concentration)” value with DSI gill cell epithelium [6] (asymmetrical conditions) is listed as “slightly greater uptake than efflux”. Further, the figures for the efflux ratio at 6 h, 1 μg L^−1 in data set [7] and in [7] (pH 7.7) were 1.09 and 1.13, respectively. The results for the “CETA, percentage” value in the data set with DSI gill cell epithelium [1] (asymmetrical conditions) and in the data set on DSI gill cell epithelium [1] (symmetrical conditions) were “no signs of facilitated transport” and “no significant differences”, respectively. Besides, the “log Kow” value in data set [8] (no pH given) is reported as 1.29.
